ChEMBL document CHEMBL3112491, “3-(5-)-Amino-o-diarylisoxazoles: regioselective synthesis and antitubulin activity” (2014)
Active and inactive are the calls of the source. No cut-off for these calls is given here.

Tests used:
[1] = system: Paracentrotus lividus; test: Microtubule destabilizing activity in sea urchin free-swimming blastula assessed as embryo spinning treated at 9 to 10 hrs post-fertilization measured after 0.15 to 15 hrs; format: functional
[2] = system: Paracentrotus lividus; test: Antimitotic activity in sea urchin fertilized egg assessed as cleavage arrest treated at 8 to 20 mins post-fertilization measured at 2.5 to 5.5 hrs post-fertilization; format: functional
[3] = system: Paracentrotus lividus; test: Antimitotic activity in sea urchin fertilized egg assessed as cleavage alteration treated at 8 to 20 mins post-fertilization measured at 2.5 to 5.5 hrs post-fertilization; format: functional
[4] = system: Paracentrotus lividus; test: Microtubule destabilizing activity in sea urchin free-swimming blastula assessed as embryo spinning up to 4 uM treated at 9 to 10 hrs post-fertilization measured after 0.15 to 15 hrs; format: functional, organism-based

SMILES	EC [1] [µM]	EC [2] [µM]	EC [3] [µM]	Activity [4]
COc1ccc(-c2c(NC(C)=O)noc2-c2cc3c(c(OC)c2OC)OCO3)cc1	>4	>4	>4	
COc1ccc(Cc2noc(-c3cccc(OC)c3)n2)cc1				inactive
COc1ccc(-c2c(NC(C)=O)noc2-c2cc(OC)c3c(c2)OCO3)cc1	>4	>4	>4	
COc1ccc(C(=O)Nc2noc(-c3ccc(OC)cc3)c2-c2cc(OC)c(OC)c(OC)c2)cc1	>4	>4	>4	
COc1ccc(-c2onc(NC(C)=O)c2-c2ccc([N+](=O)[O-])cc2)cc1	>4	>4	>4	
COc1ccc(/C=C\c2cc(OC)c3c(c2)OCO3)cc1O [Combretastatin A-2]	0.05	0.01	0.002	
COc1ccc(-c2onc(N)c2-c2cc3c(c(OC)c2OC)OCO3)cc1	>4	>4	4	
COc1ccc(-c2c(NC(C)=O)noc2-c2cc(OC)c(OC)c(OC)c2)cc1	>4	>4	>4	
COc1ccc(-c2onc(NC(C)=O)c2-c2cc(OC)c(OC)c(OC)c2)cc1	>4	>4	>4	
COc1ccc(-c2c(NC(C)=O)noc2-c2cc(OC)c3c(c2OC)OCO3)cc1	>4	>4	>4	
COc1ccc(-c2c(NC(C)=O)noc2-c2cc(OC)c3c(c2)OCCO3)cc1	>4	>4	>4	
COc1ccc(Cc2noc(-c3cc(OC)c4c(c3)OCO4)n2)cc1				inactive
COc1ccc(-c2onc(N)c2-c2cc(OC)c(OC)c(OC)c2)cc1	0.2	0.02	0.004	
COc1ccc(-c2onc(N)c2-c2cc(OC)c3c(c2OC)OCO3)cc1	>4	>4	>4	
COc1ccc(Cc2noc(-c3ccc([N+](=O)[O-])cc3)n2)cc1				inactive
COc1ccc(-c2noc(N)c2-c2cc(OC)c3c(c2OC)OCO3)cc1	>4	>4	4	
COc1ccc(-c2c(-c3cc(OC)c4c(c3OC)OCO4)noc2N(C(C)=O)C(C)=O)cc1	5	2	0.5	
